Like-named read-outs stand apart in the source and are kept apart here.
Columns and labels:
Assay type in all cases: in vivo
[1] = tested on: ducksalad (Heteranthera limosa); experiment: Test C flooded paddy test plant response; conditions: Flood, 250 g ai/ha, scale of 0 to 100 where 0 is no effect and 100 is complete control, 13 to 15 days
Outline: (§1)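 Two-leaf stage → flood to 3 cm → compound into water → hold depth, greenhouse 13–15 d → visual score vs controls (0 none, 100 complete control).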

[2] = tested on: small-flower umbrella sedge (Cyperus difformis); experiment: Test C flooded paddy test plant response; conditions: Flood, 250 g ai/ha, scale of 0 to 100 where 0 is no effect and 100 is complete control, 13 to 15 days
Outline: as §1

rice (Oryza sativa) = experiment: Test C flooded paddy test plant response; conditions: Flood, 250 g ai/ha, scale of 0 to 100 where 0 is no effect and 100 is complete control, 13 to 15 days
Outline: as §1

[3] = tested on: barnyardgrass (Echinochloa crus-galli); experiment: Test C flooded paddy test plant response; conditions: Flood, 250 g ai/ha, scale of 0 to 100 where 0 is no effect and 100 is complete control, 13 to 15 days
Outline: as §1

[4] = tested on: galium (catchweed bedstraw, Galium aparine); experiment: Test B postemergence plant response
Outline: (§2)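 Plants grown in pots of loam soil–sand blend were sprayed postemergence with formulated test chemicals at 2 to 10 cm height, one- to two-leaf stage. After about 10 days in a greenhouse, injury was visually rated against untreated controls on a 0 to 100 scale (0 no effect, 100 complete control).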

[5] = tested on: blackgrass (Alopecurus myosuroides); experiment: Test B postemergence plant response
Outline: as §2

[6] = tested on: Italian ryegrass (Lolium multiflorum); experiment: Test B pre-/postemergence plant response
Outline: (§3)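 Visual injury rating, 0 (no effect) to 100 (complete control), vs untreated controls after ~10 d greenhouse. Pre: directed soil spray after planting in loam/sand. Post: plants 2–10 cm, 1–2 leaf stage. Compound in non-phytotoxic solvent plus surfactant.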

[7] = tested on: pigweed (Amaranthus retroflexus); experiment: Test B pre-/postemergence plant response
Outline: as §3

[8] = tested on: giant foxtail (Setaria faberii); experiment: Test B pre-/postemergence plant response
Outline: as §3

[9] = tested on: wheat (Triticum aestivum); experiment: Test B pre-/postemergence plant response
Outline: as §3

[10] = tested on: ragweed (common ragweed, Ambrosia elatior); experiment: Test B pre-/postemergence plant response
Outline: as §3

kochia (Kochia scoparia) = experiment: Test B pre-/postemergence plant response
Outline: as §3

[11] = tested on: barnyardgrass (Echinochloa crus-galli); experiment: Test B pre-/postemergence plant response
Outline: as §3

corn (Zea mays) = experiment: Test B pre-/postemergence plant response
Outline: as §3

[12] = 125 g ai/ha, postemergence, 0 to 100 scale, 0 no effect, 100 complete control
[13] = Postemergence, 500 g ai/ha, 0 to 100 scale (0 no effect, 100 complete control)
[14] = Preemergence, 125 g ai/ha, 0 to 100 scale (0 no effect, 100 complete control)
[15] = Preemergence, 500 g ai/ha, 0 to 100 scale where 0 is no effect and 100 is complete control

Row | Structure (SMILES) | Plant response rating, Galium [4, 12] | Plant response rating, Galium [4, 13] | Plant response rating, Blackgrass [5, 12] | Plant response rating, Blackgrass [5, 13] | Plant response rating, Ryegrass, Italian [6, 12] | Plant response rating, Ryegrass, Italian [6, 13] | Ryegrass, Italian plant response rating [6, 14] | Plant response rating, Ryegrass, Italian [6, 15] | Pigweed plant response rating [7, 14] | Foxtail, Giant plant response rating [8, 14] | Plant response rating, Ragweed [10, 12] | Plant response rating, Ragweed [10, 13] | Ragweed plant response rating [10, 14] | Plant response rating, Ragweed [10, 15] | Plant response rating, Kochia (kochia (Kochia scoparia); [12]) | Plant response rating, Kochia (kochia (Kochia scoparia); [13]) | Kochia plant response rating (kochia (Kochia scoparia); [14]) | Plant response rating, Kochia (kochia (Kochia scoparia); [15]) | Barnyardgrass plant response rating [11, 14] | also measured
1 | FC(F)(F)c1ccnc(-c2c(Cl)cccc2Oc2ncc(Cl)cn2)c1 [Compound 159] | 70 | 100 | 0 | 30 | 0 | 0 | 0 | 0 | 40 | 20 | 0 | 0 | 0 | 0 | 20 | 80 | 0 | 30 | 0 | Ducksalad plant response rating [1]: 0; Sedge, Umbrella plant response rating [2]: 0; Rice plant response rating (rice (Oryza sativa)): 0; Barnyardgrass plant response rating [3]: 0; Plant response rating, Pigweed [7, 12]: 90; Plant response rating, Pigweed [7, 13]: 100; Plant response rating, Pigweed [7, 15]: 100; Plant response rating, Foxtail, Giant [8, 12]: 0; Plant response rating, Foxtail, Giant [8, 13]: 70; Plant response rating, Foxtail, Giant [8, 15]: 90; Plant response rating, Wheat [9, 12]: 20; Plant response rating, Wheat [9, 13]: 20; Plant response rating, Barnyardgrass [11, 12]: 0; Plant response rating, Barnyardgrass [11, 13]: 20; Plant response rating, Barnyardgrass [11, 15]: 60; Plant response rating, Corn (corn (Zea mays); [12]): 20; Plant response rating, Corn (corn (Zea mays); [13]): 30
2 | FC(F)(F)c1ccc(-c2c(Cl)cccc2Oc2ncc(Cl)cn2)nc1 [Compound 160, 5-chloro-2-[2-[5-(trifluoromethyl)-2-pyridinyl]-3-chlorophenoxy]pyrimidine] | 70 | 100 | 50 | 90 | 0 | 90 | 0 | 0 | 90 | 50 | 0 | 30 | 0 | 0 | 40 | 90 | 30 | 90 | 0 | pest or weed control at 250 g/ha ([1]; Heteranthera limosa, read-out: Ducksalad plant response rating): 0%; pest or weed control at 250 g/ha ([2]; Cyperus difformis, read-out: Sedge, Umbrella plant response rating): 0%; plant injury at 250 g/ha (rice (Oryza sativa); Oryza sativa, read-out: Rice plant response rating): 0%; pest or weed control at 250 g/ha ([3]; Echinochloa crus-galli, read-out: Barnyardgrass plant response rating): 0%; pest or weed control at 125 g/ha ([7]; Amaranthus retroflexus, post-emergence, 240 h, 125 g ai/ha, postemergence, 0 to 100 scale, 0 no effect, 100 complete control, read-out: Plant response rating, Pigweed): 90%; pest or weed control at 500 g/ha ([7]; Amaranthus retroflexus, post-emergence, 240 h, Postemergence, 500 g ai/ha, 0 to 100 scale (0 no effect, 100 complete control), read-out: Plant response rating, Pigweed): 100%; pest or weed control at 500 g/ha ([7]; Amaranthus retroflexus, pre-emergence, 240 h, Preemergence, 500 g ai/ha, 0 to 100 scale where 0 is no effect and 100 is complete control, read-out: Plant response rating, Pigweed): 100%; pest or weed control at 125 g/ha ([8]; Setaria faberi, post-emergence, 240 h, 125 g ai/ha, postemergence, 0 to 100 scale, 0 no effect, 100 complete control, read-out: Plant response rating, Foxtail, Giant): 30%; pest or weed control at 500 g/ha ([8]; Setaria faberi, post-emergence, 240 h, Postemergence, 500 g ai/ha, 0 to 100 scale (0 no effect, 100 complete control), read-out: Plant response rating, Foxtail, Giant): 100%; pest or weed control at 500 g/ha ([8]; Setaria faberi, pre-emergence, 240 h, Preemergence, 500 g ai/ha, 0 to 100 scale where 0 is no effect and 100 is complete control, read-out: Plant response rating, Foxtail, Giant): 100%; plant injury at 125 g/ha ([9]; Triticum aestivum, post-emergence, 240 h, 125 g ai/ha, postemergence, 0 to 100 scale, 0 no effect, 100 complete control, read-out: Plant response rating, Wheat): 20%; plant injury at 500 g/ha ([9]; Triticum aestivum, post-emergence, 240 h, Postemergence, 500 g ai/ha, 0 to 100 scale (0 no effect, 100 complete control), read-out: Plant response rating, Wheat): 80%; pest or weed control at 125 g/ha ([11]; Echinochloa crus-galli, post-emergence, 240 h, 125 g ai/ha, postemergence, 0 to 100 scale, 0 no effect, 100 complete control, read-out: Plant response rating, Barnyardgrass): 0%; pest or weed control at 500 g/ha ([11]; Echinochloa crus-galli, post-emergence, 240 h, Postemergence, 500 g ai/ha, 0 to 100 scale (0 no effect, 100 complete control), read-out: Plant response rating, Barnyardgrass): 80%; pest or weed control at 500 g/ha ([11]; Echinochloa crus-galli, pre-emergence, 240 h, Preemergence, 500 g ai/ha, 0 to 100 scale where 0 is no effect and 100 is complete control, read-out: Plant response rating, Barnyardgrass): 80%; Corn plant response rating (crop injury, 0 = no effect, 100 = complete kill) at 125 g/ha (corn (Zea mays); Zea mays, post-emergence, 240 h, 125 g ai/ha, postemergence, 0 to 100 scale, 0 no effect, 100 complete control): 30%; Corn plant response rating (crop injury, 0 = no effect, 100 = complete kill) at 500 g/ha (corn (Zea mays); Zea mays, post-emergence, 240 h, Postemergence, 500 g ai/ha, 0 to 100 scale (0 no effect, 100 complete control)): 90%
